Blank lines part the entries; values can stand above or below the molecule they belong to.
What was measured:
[1] = Photophysical properties of CSPP; assay type: physicochemical
Protocol: Inset: photographs of CSPP in water/iPrOH mixtures with 0% and 99% iPrOH fractions taken under 365 nm UV irradiation; (c) PL spectrum of CSPP in water/glycerol mixtures with different glycerol fractions (fG); and (d) plot of I/I0 at 620 nm versus fG, where I0 was the PL intensity in pure water. Inset: plot of log I against log η, where η was the solution viscosity. Concentration: 10 μM; λex: 400 nm.
The photophysical properties of CSPP were studied. […] However, the emission was enhanced at 640 nm in increments of isopropanol fraction (FIGS. 20a and b), which is a signature of AIE. The free intramolecular motion of a molecularly dissolved state in aqueous solution was in favor of non-radiative decay.
Addition of isopropanol induced the formation of aggregates and restricted the intramolecular motion (RIM), activating the radiative channel. Similarly, intramolecular motion can also be restricted in a highly viscous condition.

HCC827 cells [2] = test: CCK-8 cell viability with CSPP; assay type: cell-based, human; details: HCC827, CSPP up to 50 μM, 24 hours
Protocol: (§1) HCC827 and NCI-H23 cells were seeded for 24 hours and incubated in CSPP of different concentration for 24 hours. Data given are the mean±SD (n=4). Before CSPP was further functionalized for antibody labeling, its biocompatibility was verified by CCK-8 assay (FIG. 22).

NCI-H23 cells = test: CCK-8 cell viability with CSPP; assay type: cell-based; details: NCI-H23, CSPP up to 50 μM, 24 hours
Protocol: as §1

HCC827 cells [3] = test: Cell imaging of CSPP and co-staining with MitoTracker Green; assay type: cell-based, human; details: 5 μM
Protocol: The cell imaging of CSPP molecule was also checked (FIG. 23). […] After 8 hours of incubation, more dyes entered and accumulated in the mitochondria of the cells due to targeting of the pyridium group.

Water solubility of CSPP = assay type: physicochemical
From the text: The design and synthesis of the present subject matter was inspired by the simple design and synthesis of ASCP, which was further modified and the hydrophilicity was improved. To prevent denature of antibodies during conjugation, aqueous solution was used for the reaction. A water-soluble AIEgen having a long wavelength in absorption and emission was required. Piperazine (PZ) was introduced to the structure and served as the electron donating group and hydrophilic group; pyridium (Py) salt was kept as the strong electron withdrawing group and hydrophilic group; and α-Cyanostilbene was the core skeleton for attributing AIE characteristics. As such, a new AIEgen, CSPP, was synthesized by Knoevenagel condensation and Suzuki coupling and the targeted compound was successfully obtained. CSPP carries two positive charges, thus enjoying high water-solubility, and its donor-acceptor structure contributes to a long-wavelength absorption, as well as emission. The synthetic route to CSPP and CSPP—NHS is shown below, with the scheme of synthesis following.

[4] = UV-vis and photoluminescence properties of 2TPE-4E; assay type: physicochemical
Protocol: The photophysical properties of 2TPE-4E were investigated by UV-vis (FIG. 7A) and photoluminescence (PL) spectra. […] The high ε means 2TPE-4E could be excited by a weak laser power, which is beneficial for bio-application due to the weak photo-damage and photobleaching.
Although the film of 2TPE-4E looked bright, its quantum yield (QY) was measured to be around 6%, which can probably be ascribed to the high molar extinction coefficient. […] With the water fraction (fw) increasing, 2TPE-4E began to aggregate and gave a highest intensity at a fw of 90% due to the restriction of intramolecular rotation.

λmax, abs ([1]; Aggregates in 99% isopropanol): 400 nm
λmax, em ([1]; Aggregates in 99% isopropanol): 624 nm
φF ([1]; Aggregates in 99% isopropanol): 5.6%
λmax, abs ([1]; In 95% glycerol): 405 nm
λmax, em ([1]; In 95% glycerol): 610 nm
φF ([1]; In 95% glycerol): 13.7%
λmax, abs ([1]; In water): 395 nm
λmax, em ([1]; In water): 640 nm
φF ([1]; In water): 0.9%
emission in pure water ([1]; pure water): very weak emission
water solubility (Water solubility of CSPP): water-soluble
SMILES: C[n+]1ccc(-c2ccc(/C(C#N)=C/c3ccc(N4CC[N+](C)(C)CC4)cc3)cc2)cc1.[I-].[I-] [CSPP, (Z)-4-(4-(2-cyano-2-(4-(1-methylpyridin-1-ium-4-yl)phenyl)vinyl)phenyl)-1,1-dimethylpiperazin-1-ium iodide]
cell viability (HCC827 cells [2]): above 90%
cell viability (NCI-H23 cells): > 81%
emission from stained cells (HCC827 cells [3]; 30 minutes): no emission
emission from stained cells (HCC827 cells [3]; 8 hours): mitochondria lit up
Pearson correlation coefficient with MitoTracker Green (HCC827 cells [3]; 8 hours, co-staining): 0.80

maximum absorption [4]: 473 nm
water fraction (fw) giving highest emission intensity ([4]; THF/water mixtures): 90%
emission in dilute THF solution ([4]; dilute THF): very weak emission
molar extinction coefficient (ε) ([4]; dilute THF solution and thin film): about 7×10^4 M^−1 cm^−1
quantum yield (QY) ([4]; film): around 6%
solid emission wavelength ([4]; thin film): 630 nm
SMILES: CCN(CC)c1ccc(C(=C(c2ccccc2)c2ccc(C#CC#CC#CC#Cc3ccc(C(=C(c4ccc(N(CC)CC)cc4)c4ccc(N(CC)CC)cc4)c4ccccc4)cc3)cc2)c2ccc(N(CC)CC)cc2)cc1 [2TPE-4E]
